Test system: HUVEC
Assay: HUVEC morphogenesis on MATRIGEL (in vitro angiogenesis, tubular length)
Format: cell-based, human
Settings: 12-18 hours; SPM and C1P 1 μM
Method: FIG. 42 is microscope images showing morphogenesis of HUVEC cells plated on Matrigel. HUVEC cells were transduced with 50 MOI of indicated viruses; a,b=none, c=β-gal, d=wild-type EDG-1, e=T236AEDG-1, f=T236AEDG-1+wild-type Akt. Total viral load in c-f is normalized. In vitro angiogenesis assay on Matrigel was conducted in the presence (b to f) or not (a) of 100 nM S1P. The numbers are mean±s.e.m of total tubular length per microscopic field (n=2). Scale bar=170 μm.
To investigate SPP induction of angiogenesis, 200 μL aliquots of thawed MATRIGEL were polymerized in 24-well tissue culture plates. HUVEC were trypsinized, resuspended in plain M199 medium containing soybean trypsin inhibitor (10 mg/mL, Sigma Chemical Co., St. Louis, Mo.). Following centrifugation (250 g; 5 minutes), cells were resuspended in plain M199 supplemented with 2% CFBS at a density of 1.5×10^5 cells/mL. 200 μL of cell suspension were seeded on these gels in the presence or absence of SPP (Biomol), for 12-18 hours. Cells were rinsed two times with phosphate buffered saline (PBS), and then fixed with 4% formaldehyde. Results were recorded photographically using a Zeiss Axiovert 100TV microscope equipped with a 5× objective. Five random fields of each well were photographed, and total tubular length was quantified by image analysis (Kinsella, J. et al., Experimental Cell Research 199: 56-62 (1992); Gamble J., et al., J. Cell Biol. 121: 931-943 (1993)).
Scale bar represents 52 microns. These quantitative data are the mean±standard deviation of duplicate determinations from a representative experiment which was repeated at least three times. SPP concentrations (in μM) are indicated in parentheses. For SPP +PTx, HUVEC were pretreated with PTx (200 ng/mL) for 2 hours, trypsinized, plated onto MATRIGEL, then stimulated with 500 nM SPP in the presence of PTx (20 ng/mL) for 16-18 hours. For SPP+C3, HUVEC were pretreated with C3 exoenzyme (10 μg/mL) for 48 hours, trypsinized, plated onto MATRIGEL, stimulated with 500 nM SPP together with the same concentration of C3 exotoxin. SPM, sphingomyelin (1 μM). For C1P, C8-ceramide-1-phosphate (1 μM). The maximal effects achieved by 1 μM SPP was indistinguishable from the positive control medium which contained FBS.
In these experiments, HUVEC were plated onto MATRIGEL in the presence of the same amount of corresponding antibodies without or with 500 nM SPP. 16 hours later, total length of HUVEC networks formed on MATRIGEL was quantified.

With CCCCCCCCCCCCC/C=C/[C@@H](O)[C@@H](N)COP(=O)(O)O [SPP, sphingosine-1-phosphate] the “HUVEC morphogenesis on MATRIGEL (tubular length)” value was “promoted HUVEC morphogenesis in a dose-dependent manner”.
